Consider two compounds from patent publication US5741811A, “Polythiophene anti-tumor agents” (Purdue Research Foundation, priority 1996, dated 1998).

For series [1] the following is noted: water.
In series [2] the test system is SK-MEL-28 melanoma cells. Briefly: NCI human tumor cell line panel growth inhibition. Format: cell-based. Conditions: read-out: Log10 GI50 (converted). The text has this: (§1) The cytotoxic activity of the present polythiophene compounds have been measured utilizing three different assays or screens. The first screen measures the cytotoxicity against a panel of sixty different human tumor cell lines. This assay provides data regarding the general cytotoxicity of an individual compound. In particular this type of assay is useful in identifying compounds which have enhanced cytotoxic activity against slow growing tumors as compared to faster growing tumor cells such as leukemia tumor cell lines. The identification of such compounds is critical since previously identified antitumor agents have low cytotoxic activity against slower growing tumors. […] The specificity of a cytotoxic compound for tumor cell lines relative to normal cells is an important characteristic of an effective antitumor agent.
(§2) The length of a bar is indicative of differential cytotoxicity against a specific type of tumor cells or tumor panels.
(§3) The antitumor cytotoxicity of the thiophene compounds tested in the first two in vitro assays was measured by a microculture assay using either 3-(4,5-dimethylthiazol-2-yl)-2,5-diphenyltetrazolium bromide (MTT) or sulforhodamine B (SRB). [M. R. Boyd in "Principles and Practices of Oncology," V. T. DeVita, Jr., S. Hellman and S. A. Rosenberg (Eds.), Vol. 3, PPO Updates, Number 10, 1989.] This assay has an advantage over in vivo assay in that results are obtained within a week as opposed to several months. The assay was carried out in 96-well microtiter plates. The MTT assay is based on the production of a dark blue formazan product by dehydrogenase in the mitochondria of live tumor cells after exposure to drug for 6 days [M. C. Alley, D. A. Scudiero, A. Monks, M. L. Hursey, M. J. Czerwinski, D. L. Fine, B. J. Abbott, J. G. Mayo, R. H. Shoemaker and M. R. Boyd, Cancer Res., 48, 589, 1988.] Thus, only live cells are stained and can be measured at 570 nm. The SRB assay is based on the binding of the anionic group to the basic amino acid residues of cellular proteins after exposure of tumor cells to drug for 2 days [P. Skehan, R. Storeng, D. Scudiero, A. Monks, J. McMahon, D. Vistica, J. T. Warren, H. Bohesch, S. Kenney and M. R. Boyd, J. Nat. Cancer Inst., 82, 1107, 1990.] Thus, the total protein (viability) can be measured at 564 nm.

The subject of series [3] is MDA-N breast cancer cells. Briefly: NCI human tumor cell line panel growth inhibition. It counts as cell-based. Conditions: read-out: Log10 GI50 (converted).
Excerpt: as §1, §2, §3

Series [4] relates to BT-549 breast cancer cells. Briefly: NCI human tumor cell line panel growth inhibition. Format: cell-based. Conditions: read-out: Log10 GI50 (converted).
Excerpt: as §1, §2, §3

The test system of series [5] is PC-3 prostate cancer cells. Briefly: NCI human tumor cell line panel growth inhibition. It counts as cell-based. The settings on record: read-out: Log10 GI50 (converted).
Excerpt: as §1, §2, §3

The test system of series [6] is SK-MEL-5 melanoma cells. The series is described as follows: NCI human tumor cell line panel growth inhibition. It counts as cell-based. The settings on record: read-out: Log10 GI50 (converted).
Excerpt: as §1, §2, §3

Series [7] deals with MDA-MB-435 breast cancer cells. The series is described as follows: NCI human tumor cell line panel growth inhibition. Format: cell-based. The settings on record: read-out: Log10 GI50 (converted).
Excerpt: as §1, §2, §3

The test system of series [8] is MCF7 breast cancer cells. The series is described as follows: NCI human tumor cell line panel growth inhibition. Format: cell-based. The settings on record: read-out: Log10 GI50 (converted).
Excerpt: as §1, §2, §3

Series [9] deals with DU-145 prostate cancer cells. Briefly: NCI human tumor cell line panel growth inhibition. Conditions: read-out: Log10 GI50 (converted). It counts as cell-based.
Excerpt: as §1, §2, §3

Series [10] has as its system HS 578T breast cancer cells. Briefly: NCI human tumor cell line panel growth inhibition. It counts as cell-based. The settings on record: read-out: Log10 GI50 (converted).
Excerpt: as §1, §2, §3

Series [11] has as its system KM12 colon cancer cells. The series is described as follows: NCI human tumor cell line panel growth inhibition. It counts as cell-based. The settings on record: Homo sapiens, read-out: Log10 GI50 (converted).
Excerpt: as §1, §2, §3

The subject of series [12] is MCF7/ADR-RES breast cancer cells. The series is described as follows: NCI human tumor cell line panel growth inhibition. Conditions: read-out: Log10 GI50 (converted). Format: cell-based.
Excerpt: as §1, §2, §3

Series [13] relates to MALME-3M melanoma cells. The series is described as follows: NCI human tumor cell line panel growth inhibition. Format: cell-based. Conditions: read-out: Log10 GI50 (converted).
Series [14] relates to UO-31 renal cancer cells. Briefly: NCI human tumor cell line panel growth inhibition. Format: cell-based. Conditions: read-out: Log10 GI50 (converted).
The test system of series [15] is RXF-393 renal cancer cells. The series is described as follows: NCI human tumor cell line panel growth inhibition. It counts as cell-based. The settings on record: Homo sapiens, read-out: Log10 GI50 (converted).
Series [16] concerns TK-10 renal cancer cells. The series is described as follows: NCI human tumor cell line panel growth inhibition. The settings on record: Homo sapiens, read-out: Log10 GI50 (converted). Format: cell-based.
The subject of series [17] is SF-295 CNS cancer cells. The series is described as follows: NCI human tumor cell line panel growth inhibition. Format: cell-based. The settings on record: read-out: Log10 GI50 (converted).
The subject of series [18] is HCT-15 colon cancer cells. The series is described as follows: NCI human tumor cell line panel growth inhibition. Format: cell-based. Conditions: Homo sapiens, read-out: Log10 GI50 (converted).
The subject of series [19] is SW-620 colon cancer cells. The series is described as follows: NCI human tumor cell line panel growth inhibition. It counts as cell-based. Conditions: Homo sapiens, read-out: Log10 GI50 (converted). On the procedure: (§4) The first screen measures the cytotoxicity against a panel of sixty different human tumor cell lines. This assay provides data regarding the general cytotoxicity of an individual compound.
as §2, §3

For series [20], the system named is OVCAR-8 ovarian cancer cells. The series is described as follows: NCI human tumor cell line panel growth inhibition. The settings on record: Homo sapiens, read-out: Log10 GI50 (converted). Format: cell-based. As to the method: as §4, §2, §3
Series [21] concerns SN12C renal cancer cells. The series is described as follows: NCI human tumor cell line panel growth inhibition. Format: cell-based. Conditions: read-out: Log10 GI50 (converted).
Series [22] concerns T-47D breast cancer cells. Briefly: NCI human tumor cell line panel growth inhibition. Format: cell-based. The settings on record: T47D, read-out: Log10 GI50 (converted).
Procedure: The assay was carried out in 96-well microtiter plates. The MTT assay is based on the production of a dark blue formazan product by dehydrogenase in the mitochondria of live tumor cells after exposure to drug for 6 days [M. C. […] The SRB assay is based on the binding of the anionic group to the basic amino acid residues of cellular proteins after exposure of tumor cells to drug for 2 days [P. Skehan, R. Storeng, D. Scudiero, A. Monks, J. McMahon, D. Vistica, J. T. Warren, H. Bohesch, S. Kenney and M. R. Boyd, J. Nat.
The subject of series [23] is IGROV-1 ovarian cancer cells. The series is described as follows: NCI human tumor cell line panel growth inhibition. Format: cell-based. The settings on record: Homo sapiens, read-out: Log10 GI50 (converted).
Series [24] relates to HCC-2998 colon cancer cells. The series is described as follows: NCI human tumor cell line panel growth inhibition. Conditions: Homo sapiens, read-out: Log10 GI50 (converted). It counts as cell-based.
For series [25], the system named is HT29 colon cancer cells. The series is described as follows: NCI human tumor cell line panel growth inhibition. It counts as cell-based. Conditions: Homo sapiens, HT-29, read-out: Log10 GI50 (converted).
Series [26] has as its system ACHN renal cancer cells. Briefly: NCI human tumor cell line panel growth inhibition. Format: cell-based. Conditions: read-out: Log10 GI50 (converted).
For series [27], the system named is U251 CNS cancer cells. Briefly: NCI human tumor cell line panel growth inhibition. It counts as cell-based. Conditions: Homo sapiens, U-251, read-out: Log10 GI50 (converted).
Series [28] deals with 786-0 renal cancer cells. The series is described as follows: NCI human tumor cell line panel growth inhibition. Format: cell-based. Conditions: read-out: Log10 GI50 (converted).
In series [29] the test system is COLO-205 colon cancer cells. Briefly: NCI human tumor cell line panel growth inhibition. Format: cell-based. Conditions: Homo sapiens; COLO-205, colon cancer; read-out: Log10 GI50 (converted).
For series [30], the system named is NCI-H23 lung cancer cells. The series is described as follows: NCI human tumor cell line panel growth inhibition. Format: cell-based. Conditions: read-out: Log10 GI50 (converted).
Series [31] relates to NCI-H226 lung cancer cells. Briefly: NCI human tumor cell line panel growth inhibition. Conditions: Homo sapiens, read-out: Log10 GI50 (converted). It counts as cell-based.
For series [32], the system named is HOP-62 lung cancer cells. The series is described as follows: NCI human tumor cell line panel growth inhibition. Conditions: Homo sapiens, read-out: Log10 GI50 (converted). It counts as cell-based.
In series [33] the test system is M-14 melanoma cells. Briefly: NCI human tumor cell line panel growth inhibition. Format: cell-based. Conditions: M14, read-out: Log10 GI50 (converted).
Series [34] relates to NCI-H522 lung cancer cells. The series is described as follows: NCI human tumor cell line panel growth inhibition. It counts as cell-based. The settings on record: read-out: Log10 GI50 (converted).
Series [35] has as its system NCI-H460 lung cancer cells. Briefly: NCI human tumor cell line panel growth inhibition. Format: cell-based. Conditions: Homo sapiens, read-out: Log10 GI50 (converted).

For `NCc1ccc(-c2ccc(-c3cccs3)s2)s1` [NSC Code 652866, aminomethylterthiophene], the “aminomethylterthiophene dissolved by 1 mL of H2O (as cyclodextrin complex)” value in series [1] is recorded as “up to 77 mg”.

With `OCc1cc(-c2ccc(-c3cccs3)s2)sc1CO`, the GI50 (in general, the concentration at which growth is held to half of that of the control) is 39.8 µM in [2]; 5.37 µM in series [3]; 83.2 µM in [4]; 49 µM in series [5]; > 10 µM in series [6]; 15.1 µM in series [7]. For the same compound, the concentration for 50% growth inhibition (GI50) in series [8] was 178 nM; in series [9], 55 µM; in series [10] it was 52.5 µM; in [11], 16.6 µM; in [12], 57.5 µM; in [13] it was 29.5 µM. Moreover, the concentration for 50% growth inhibition (GI50) in series [14] was 64.6 µM; in series [15] it was 8.71 µM; in series [16], 20.9 µM; in series [17], 33.9 µM; in [18], 28.2 µM; in series [19] it was 40.7 µM. In addition, the 50% growth inhibitory concentration (GI50) in series [20] is 50.1 µM; in [21] it was 46.8 µM; in series [22], 427 nM; in series [23], 229 nM; in series [24], 316 nM; in series [25] it was 18.6 µM. Besides, the 50% growth inhibitory concentration (GI50) in [26] is 56.2 µM; in series [27], 69.2 µM; in series [28], 52.5 µM; in series [29] it was 5.89 µM; in series [30], 38.9 µM; in series [31], 257 nM. The GI50 is 20 µM in series [32], 51.3 µM in series [33], 33.9 µM in [34] and 5.62 µM in series [35].
